Source: PMC5053523, “In Vitro Antibacterial Activity of Rhodanine Derivatives against Pathogenic Clinical Isolates” (PLoS ONE, 2016)
≈ marks a conversion by molar mass, not a printed value. Read-outs that look alike come from different tables or passages of the source.

Experiments:
Acinetobacter baumannii [1] = test: Broth microdilution MIC, Acinetobacter baumannii; format: cell-based
Acinetobacter baumannii [2] = test: MIC with/without PMBN, Acinetobacter baumannii; format: cell-based
In short: (§1)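 Gram-negative MICs were determined for rhodanines alongside control antibiotics, each combined with sub-inhibitory colistin or PMBN. Further testing used the efflux-deficient E. coli SM1411ΔacrAB, missing the AcrAB multidrug pump.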

[3] = test system: Vancomycin Resistant Staphylococcus aureus (VRSA); test: Broth microdilution MIC/MBC, VRSA; format: cell-based; settings: for MBC / MIC: VRSA
Bacillus anthracis = test: microbe, parasite or virus in culture; format: cell-based
[4] = test system: vancomycin resistant enterococci (VRE) E. faecalis; test: Broth microdilution MIC/MBC, VRE E. faecalis; format: cell-based; settings: for MIC: read-out: MIC
MRSA USA300 = test: MIC against MRSA USA300 with and without 4% human serum albumin; format: cell-based, Staphylococcus aureus; settings: Staphylococcus aureus, read-out: MIC against MRSA USA300
In short: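 Broth microdilution MIC per CLSI against MRSA USA300, run in tryptic soy broth alone and with 4% human serum albumin. MIC is the lowest concentration inhibiting growth.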

[5] = test system: vancomycin resistant enterococci (VRE); test: Broth microdilution MIC50/MIC90, VRE panel; format: cell-based; settings: Enterococcus, 10 VRE strains
Salmonella Typhimurium = test: MIC with/without PMBN, Salmonella Typhimurium; format: cell-based
In short: as §1

B. licheniformis = test: Broth microdilution MIC/MBC, B. licheniformis; format: cell-based; settings: Bacillus licheniformis; for MBC: read-out: MBC; for MIC: read-out: MIC
Klebsiella pneumoniae = test: MIC with/without PMBN, Klebsiella pneumoniae; format: cell-based
In short: as §1

Clostridium difficile = test: MIC against Clostridium difficile, anaerobic broth dilution; format: cell-based; settings: Clostridioides difficile
In short: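 Clinical C. difficile isolates grown anaerobically 48 h at 37 °C, suspended to 0.5 McFarland and diluted 1:300 in pre-reduced supplemented Brain Heart Infusion broth. Compounds serially diluted; plates incubated anaerobically at 37 °C for 48 h. MIC = lowest concentration with no visible growth.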

[6] = E. faecalis NR31972 Strain SF 28073
[7] = NCIB9375, B. licheniformis Gibson 46 (NCIB 9375) NR-2494
[8] = NRS712, B. licheniformis NRS 712 NR-2499

O=C(O)[C@@H](Cc1ccccc1)N1C(=O)/C(=C/c2cccc(Cc3ccccc3)c2)SC1=S [Rh 7] was tested, and the MIC (Acinetobacter baumannii [1]; ATCC13345) was over 128 µM, the MIC (Acinetobacter baumannii [1]; ATCC17786) was over 128 µM and the MIC (Acinetobacter baumannii [2]; Acinetobacter baumannii ATCC BAA747, PMBN (+) 4 μg/mL, read-out: MIC) was over 64 µM. For the same molecule, the MIC (Acinetobacter baumannii [2]; Acinetobacter baumannii ATCC BAA19606, PMBN (+) 4 μg/mL, read-out: MIC) was over 64 µM, the MIC (Acinetobacter baumannii [2]; Acinetobacter baumannii, ATCCBAA747) was over 128 µM and the MIC (Acinetobacter baumannii [2]; Acinetobacter baumannii, ATCCBAA19606) was over 128 µM. The MIC50 ([3]; 15 VRSA strains, read-out: MIC 50) was 8 µM (≈ 3.68 µg/mL), the MIC90 ([3]; 15 VRSA strains, read-out: MIC 90) was 16 µM (≈ 7.35 µg/mL) and the MBC ([3]; VRSA 1, read-out: MBC) was 32 µM (≈ 14.7 µg/mL). The MIC ([3]; VRSA 1, read-out: MIC) was 16 µM (≈ 7.35 µg/mL), the MBC ([3]; VRSA 2, read-out: MBC) was 8 µM (≈ 3.68 µg/mL) and the MIC ([3]; VRSA 2, read-out: MIC) was 8 µM (≈ 3.68 µg/mL). It also gave an MBC ([3]; VRSA 3a, read-out: MBC) of 8 µM (≈ 3.68 µg/mL), an MIC ([3]; VRSA 3a, read-out: MIC) of 8 µM (≈ 3.68 µg/mL) and an MBC ([3]; VRSA 3b, read-out: MBC) of 32 µM (≈ 14.7 µg/mL). It also gave an MIC ([3]; VRSA 3b, read-out: MIC) of 8 µM (≈ 3.68 µg/mL), an MBC ([3]; VRSA 4, read-out: MBC) of 16 µM (≈ 7.35 µg/mL) and an MIC ([3]; VRSA 4, read-out: MIC) of 8 µM (≈ 3.68 µg/mL). For the same molecule, the MBC ([3]; VRSA 5, read-out: MBC) was 8 µM (≈ 3.68 µg/mL), the MIC ([3]; VRSA 5, read-out: MIC) was 8 µM (≈ 3.68 µg/mL) and the MBC ([3]; VRSA 6, read-out: MBC) was 16 µM (≈ 7.35 µg/mL). It also gave an MIC ([3]; VRSA 6, read-out: MIC) of 8 µM (≈ 3.68 µg/mL), an MBC ([3]; VRSA 7, read-out: MBC) of 16 µM (≈ 7.35 µg/mL) and an MIC ([3]; VRSA 7, read-out: MIC) of 8 µM (≈ 3.68 µg/mL). For the same molecule, the MBC ([3]; VRSA 8, read-out: MBC) was 16 µM (≈ 7.35 µg/mL), the MIC ([3]; VRSA 8, read-out: MIC) was 8 µM (≈ 3.68 µg/mL) and the MBC ([3]; VRSA 9, read-out: MBC) was 16 µM (≈ 7.35 µg/mL). The MIC ([3]; VRSA 9, read-out: MIC) was 16 µM (≈ 7.35 µg/mL), the MBC ([3]; VRSA 10, read-out: MBC) was 16 µM (≈ 7.35 µg/mL) and the MIC ([3]; VRSA 10, read-out: MIC) was 8 µM (≈ 3.68 µg/mL). The MBC ([3]; VRSA 11a, read-out: MBC) was 16 µM (≈ 7.35 µg/mL), the MIC ([3]; VRSA 11a, read-out: MIC) was 8 µM (≈ 3.68 µg/mL) and the MBC ([3]; VRSA 11b, read-out: MBC) was 32 µM (≈ 14.7 µg/mL). The MIC ([3]; VRSA 11b, read-out: MIC) was 8 µM (≈ 3.68 µg/mL), the MBC ([3]; VRSA 12, read-out: MBC) was 16 µM (≈ 7.35 µg/mL) and the MIC ([3]; VRSA 12, read-out: MIC) was 8 µM (≈ 3.68 µg/mL). For the same molecule, the MBC ([3]; VRSA 13, read-out: MBC) was 32 µM (≈ 14.7 µg/mL), the MIC ([3]; VRSA 13, read-out: MIC) was 8 µM (≈ 3.68 µg/mL) and the MBC (Bacillus anthracis; Bacillus anthracis AMES35) was 2 µM (≈ 0.919 µg/mL). For the same molecule, the MIC (Bacillus anthracis; Bacillus anthracis AMES35) was 2 µM (≈ 0.919 µg/mL), the MBC (Bacillus anthracis; Bacillus anthracis UM23) was 2 µM (≈ 0.919 µg/mL) and the MIC (Bacillus anthracis; Bacillus anthracis UM23) was 2 µM (≈ 0.919 µg/mL). It also gave an MBC (Bacillus anthracis; Bacillus anthracis Weybridge) of 2 µM (≈ 0.919 µg/mL), an MIC (Bacillus anthracis; Bacillus anthracis Weybridge) of 2 µM (≈ 0.919 µg/mL) and an MBC ([4]; E. faecalis ERV103 HM-934) of 16 µM (≈ 7.35 µg/mL). For the same molecule, the MIC ([4]; E. faecalis ERV103 HM-934) was 16 µM (≈ 7.35 µg/mL), the MBC [4, 6] was 16 µM (≈ 7.35 µg/mL) and the MIC [4, 6] was 16 µM (≈ 7.35 µg/mL). The MBC ([4]; E. faecalis R712 HM-335) was 16 µM (≈ 7.35 µg/mL), the MIC ([4]; E. faecalis R712 HM-335) was 8 µM (≈ 3.68 µg/mL) and the MBC ([4]; E. faecalis S613 HM-334) was 16 µM (≈ 7.35 µg/mL). For the same molecule, the MIC ([4]; E. faecalis S613 HM-334) was 16 µM (≈ 7.35 µg/mL), the MBC ([4]; E. faecalis TX0104 HM-201) was 16 µM (≈ 7.35 µg/mL) and the MIC ([4]; E. faecalis TX0104 HM-201) was 16 µM (≈ 7.35 µg/mL). For the same molecule, the MIC (MRSA USA300; 24 h, Media TSB + 4% HSA) was over 64 µM, the MIC (MRSA USA300; Media TSB) was 16 µM (≈ 7.35 µg/mL) and the MIC90 ([5]; VRE, read-out: MIC 90) was 16 µM (≈ 7.35 µg/mL). It also gave an MIC50 ([5]; read-out: MIC 50) of 16 µM (≈ 7.35 µg/mL), an MIC (Salmonella Typhimurium; Salmonella Typhimurium ATCC 700720, PMBN (+) 4 μg/mL, read-out: MIC) of over 128 µM and an MIC (Salmonella Typhimurium; Salmonella enterica, ATCC 700720 / TYPHIMURIUM) of over 128 µM. The MBC (B. licheniformis; [7]) was 8 µM (≈ 3.68 µg/mL), the MIC (B. licheniformis; [7]) was 8 µM (≈ 3.68 µg/mL) and the MBC (B. licheniformis; [8]) was 8 µM (≈ 3.68 µg/mL). It also gave an MIC (B. licheniformis; [8]) of 8 µM (≈ 3.68 µg/mL), an MIC (Klebsiella pneumoniae; Klebsiella pneumoniae ATCC BAA 1706, PMBN (+) 4 μg/mL) of over 64 µM and an MIC (Klebsiella pneumoniae; Klebsiella pneumoniae ATCC BAA 2146, PMBN (+) 4 μg/mL) of over 64 µM. The MIC (Klebsiella pneumoniae; Klebsiella pneumoniae, BAA1706) was over 128 µM, the MIC (Klebsiella pneumoniae; Klebsiella pneumoniae, BAA2146) was over 128 µM and the MIC (Clostridium difficile; C. difficile HM-88) was 4 µM (≈ 1.84 µg/mL). It also gave an MIC (Clostridium difficile; C. difficile HM-745) of 1 µM (≈ 0.46 µg/mL), an MIC (Clostridium difficile; C. difficile HM-746) of 2 µM (≈ 0.919 µg/mL) and an MIC (Clostridium difficile; C. difficile Isolate-1 NR-13427) of 4 µM (≈ 1.84 µg/mL). For the same molecule, the MIC (Clostridium difficile; C. difficile Toxigenic Strain P8 NR-32888) was 4 µM (≈ 1.84 µg/mL).
